Data published in ChEMBL document CHEMBL3885861, “Open TG-GATES”.

Species: Rattus norvegicus
Test: Open TG-GATES - Regimen: Single
Assay type: toxicity, organism-based, Sprague-Dawley
Set-up: regimen Single, gender Male, age 6 weeks
Conditions: in vivo, ip, 0.3 mg/kg, route intraperitoneal injection, dose 300 ug/Kg, dose level Middle; for KIDNEY_L / KIDNEY_R / KIDNEY_TOTAL: tissue Kidney; for LIVER: tissue Liver; for ALP / ALT / AST / BUN / CRE / Ca / DBIL / GLC / IP / K / LDH / PL / RALB / TBIL / TC / TG / TP / gamma-GTP / Na: tissue Plasma

**Q.** Which APTT (3 h, tissue Blood) does the source give for LPS here?
**A.** 22.5 s

**Q.** And the Bas (3 h, tissue Blood)?
**A.** 0%

**Q.** And the Eos (3 h, tissue Blood)?
**A.** 0.3%

**Q.** What about the Fbg (3 h, tissue Blood) of the same substance?
**A.** 152.7 mg/dL

**Q.** What about the Hb (3 h, tissue Blood) of the same substance?
**A.** 13.6 g/dL

**Q.** What about the Lym (3 h, tissue Blood) of the same substance?
**A.** 75%

**Q.** And the MCH (3 h, tissue Blood)?
**A.** 21.8 pg

**Q.** And the MCHC (3 h, tissue Blood)?
**A.** 32.9%

**Q.** What about the Mono (3 h, tissue Blood) of the same substance?
**A.** 0.7%

**Q.** And the Neu (3 h, tissue Blood)?
**A.** 24%

**Q.** And the PT (3 h, tissue Blood)?
**A.** 17.9 s

**Q.** What about the Plat (3 h, tissue Blood) of the same substance?
**A.** 65.5 x10_4/uL

**Q.** And the RBC (3 h, tissue Blood)?
**A.** 625.3 x10_4/ul

**Q.** And the Ret (3 h, tissue Blood)?
**A.** 9.1%

**Q.** And the WBC (3 h, tissue Blood)?
**A.** 24.9 x10_2/uL

**Q.** And the KIDNEY_L (3 h)?
**A.** 1 g

**Q.** What about the KIDNEY_R (3 h) of the same substance?
**A.** 1 g

**Q.** And the KIDNEY_TOTAL (3 h)?
**A.** 2 g

**Q.** What about the LIVER (3 h) of the same substance?
**A.** 8.6 g

**Q.** And the ALP (3 h)?
**A.** 1337.3 IU/L

**Q.** And the ALT (3 h)?
**A.** 67.3 IU/L

**Q.** And the AST (3 h)?
**A.** 171 IU/L

**Q.** And the BUN (3 h)?
**A.** 12.7 mg/dL

**Q.** What about the CRE (3 h) of the same substance?
**A.** 0.2 mg/dL

**Q.** What about the Ca (3 h) of the same substance?
**A.** 9.7 mg/dL

**Q.** What about the DBIL (3 h) of the same substance?
**A.** 0.0533 mg/dL

**Q.** What about the GLC (3 h) of the same substance?
**A.** 138.7 mg/dL

**Q.** And the IP (3 h)?
**A.** 9.3 mg/dL

**Q.** And the K (3 h)?
**A.** 3.9 meq/L

**Q.** And the LDH (3 h)?
**A.** 487.3 IU/L

**Q.** What about the PL (3 h) of the same substance?
**A.** 134 mg/dL

**Q.** What about the RALB (3 h) of the same substance?
**A.** 2.2 g/dL

**Q.** What about the TBIL (3 h) of the same substance?
**A.** 0.2 mg/dL

**Q.** What about the TC (3 h) of the same substance?
**A.** 68.3 mg/dL

**Q.** What about the TG (3 h) of the same substance?
**A.** 96 mg/dL

**Q.** What about the TP (3 h) of the same substance?
**A.** 5 g/dL

**Q.** And the gamma-GTP (3 h)?
**A.** 1 IU/L

**Q.** And the TERMINAL_BW (6 h)?
**A.** 193.4 g

**Q.** What about the APTT (6 h, tissue Blood) of the same substance?
**A.** 28.2 s

**Q.** And the Bas (6 h, tissue Blood)?
**A.** 0%

**Q.** What about the Eos (6 h, tissue Blood) of the same substance?
**A.** 1%

**Q.** What about the Fbg (6 h, tissue Blood) of the same substance?
**A.** 185.7 mg/dL

**Q.** And the Hb (6 h, tissue Blood)?
**A.** 13.6 g/dL

**Q.** And the Ht (6 h, tissue Blood)?
**A.** 40.7%

**Q.** And the Lym (6 h, tissue Blood)?
**A.** 56%

**Q.** What about the MCHC (6 h, tissue Blood) of the same substance?
**A.** 33.3%

**Q.** And the MCV (6 h, tissue Blood)?
**A.** 64.7 fL

**Q.** And the Mono (6 h, tissue Blood)?
**A.** 1%

**Q.** What about the Neu (6 h, tissue Blood) of the same substance?
**A.** 41.3%

**Q.** And the PT (6 h, tissue Blood)?
**A.** 17.8 s

**Q.** What about the Plat (6 h, tissue Blood) of the same substance?
**A.** 56 x10_4/uL

**Q.** What about the RBC (6 h, tissue Blood) of the same substance?
**A.** 629.3 x10_4/ul

**Q.** What about the Ret (6 h, tissue Blood) of the same substance?
**A.** 9.3%

**Q.** And the WBC (6 h, tissue Blood)?
**A.** 34.8 x10_2/uL

**Q.** What about the KIDNEY_L (6 h) of the same substance?
**A.** 0.9 g

**Q.** What about the KIDNEY_R (6 h) of the same substance?
**A.** 0.9 g

**Q.** What about the KIDNEY_TOTAL (6 h) of the same substance?
**A.** 1.9 g

**Q.** And the LIVER (6 h)?
**A.** 8 g

**Q.** And the ALP (6 h)?
**A.** 1219 IU/L

**Q.** What about the ALT (6 h) of the same substance?
**A.** 143.7 IU/L

**Q.** What about the AST (6 h) of the same substance?
**A.** 272 IU/L

**Q.** What about the BUN (6 h) of the same substance?
**A.** 18.3 mg/dL

**Q.** And the CRE (6 h)?
**A.** 0.2 mg/dL

**Q.** What about the Ca (6 h) of the same substance?
**A.** 9.7 mg/dL

**Q.** What about the DBIL (6 h) of the same substance?
**A.** 0.1 mg/dL

**Q.** And the GLC (6 h)?
**A.** 140 mg/dL

**Q.** And the IP (6 h)?
**A.** 9.9 mg/dL

**Q.** What about the K (6 h) of the same substance?
**A.** 4 meq/L

**Q.** What about the LDH (6 h) of the same substance?
**A.** 1262.7 IU/L

**Q.** And the Na (6 h)?
**A.** 139.7 meq/L

**Q.** What about the PL (6 h) of the same substance?
**A.** 163.3 mg/dL

**Q.** What about the RALB (6 h) of the same substance?
**A.** 2.2 g/dL

**Q.** What about the TBIL (6 h) of the same substance?
**A.** 0.4 mg/dL

**Q.** What about the TC (6 h) of the same substance?
**A.** 103.7 mg/dL

**Q.** What about the TG (6 h) of the same substance?
**A.** 65.3 mg/dL

**Q.** And the TP (6 h)?
**A.** 5 g/dL

**Q.** And the gamma-GTP (6 h)?
**A.** 2.3 IU/L

**Q.** And the TERMINAL_BW (9 h)?
**A.** 188.8 g

**Q.** What about the APTT (9 h, tissue Blood) of the same substance?
**A.** 22.1 s

**Q.** And the Bas (9 h, tissue Blood)?
**A.** 0%

**Q.** And the Eos (9 h, tissue Blood)?
**A.** 1%

**Q.** And the Fbg (9 h, tissue Blood)?
**A.** 248.7 mg/dL

**Q.** And the Hb (9 h, tissue Blood)?
**A.** 13.8 g/dL

**Q.** And the Lym (9 h, tissue Blood)?
**A.** 51.3%

**Q.** What about the MCV (9 h, tissue Blood) of the same substance?
**A.** 64.7 fL

**Q.** And the Mono (9 h, tissue Blood)?
**A.** 1%

**Q.** And the Neu (9 h, tissue Blood)?
**A.** 46.7%

**Q.** And the Plat (9 h, tissue Blood)?
**A.** 59.9 x10_4/uL

**Q.** What about the RBC (9 h, tissue Blood) of the same substance?
**A.** 643.7 x10_4/ul

**Q.** And the Ret (9 h, tissue Blood)?
**A.** 8.7%

**Q.** And the WBC (9 h, tissue Blood)?
**A.** 71 x10_2/uL

**Q.** And the KIDNEY_L (9 h)?
**A.** 0.9 g

**Q.** And the KIDNEY_R (9 h)?
**A.** 0.9 g

**Q.** What about the KIDNEY_TOTAL (9 h) of the same substance?
**A.** 1.9 g

**Q.** And the LIVER (9 h)?
**A.** 7.2 g

**Q.** What about the ALP (9 h) of the same substance?
**A.** 1291 IU/L

**Q.** And the ALT (9 h)?
**A.** 126.3 IU/L

**Q.** What about the AST (9 h) of the same substance?
**A.** 246.7 IU/L

**Q.** What about the BUN (9 h) of the same substance?
**A.** 16.3 mg/dL

**Q.** What about the CRE (9 h) of the same substance?
**A.** 0.2 mg/dL

**Q.** And the Ca (9 h)?
**A.** 10 mg/dL

**Q.** What about the DBIL (9 h) of the same substance?
**A.** 0.0533 mg/dL

**Q.** What about the GLC (9 h) of the same substance?
**A.** 139.3 mg/dL

**Q.** What about the IP (9 h) of the same substance?
**A.** 9.6 mg/dL

**Q.** And the K (9 h)?
**A.** 4.1 meq/L

**Q.** What about the LDH (9 h) of the same substance?
**A.** 1570.3 IU/L

**Q.** What about the Na (9 h) of the same substance?
**A.** 140.3 meq/L

**Q.** What about the PL (9 h) of the same substance?
**A.** 166.3 mg/dL

**Q.** What about the RALB (9 h) of the same substance?
**A.** 2.4 g/dL

**Q.** And the TBIL (9 h)?
**A.** 0.2 mg/dL

**Q.** What about the TC (9 h) of the same substance?
**A.** 119 mg/dL

**Q.** What about the TG (9 h) of the same substance?
**A.** 38 mg/dL

**Q.** And the TP (9 h)?
**A.** 5.4 g/dL

**Q.** And the gamma-GTP (9 h)?
**A.** 4.3 IU/L

**Q.** What about the TERMINAL_BW (24 h) of the same substance?
**A.** 189.4 g

**Q.** What about the APTT (24 h, tissue Blood) of the same substance?
**A.** 19.4 s

**Q.** And the Bas (24 h, tissue Blood)?
**A.** 0%

**Q.** What about the Eos (24 h, tissue Blood) of the same substance?
**A.** 1%

**Q.** And the Fbg (24 h, tissue Blood)?
**A.** 519 mg/dL

**Q.** And the Hb (24 h, tissue Blood)?
**A.** 13.6 g/dL

**Q.** What about the Lym (24 h, tissue Blood) of the same substance?
**A.** 61.7%

**Q.** What about the MCH (24 h, tissue Blood) of the same substance?
**A.** 20.6 pg

**Q.** What about the MCHC (24 h, tissue Blood) of the same substance?
**A.** 32.9%

**Q.** And the Mono (24 h, tissue Blood)?
**A.** 2.7%

**Q.** What about the Neu (24 h, tissue Blood) of the same substance?
**A.** 33.3%

**Q.** What about the PT (24 h, tissue Blood) of the same substance?
**A.** 14.6 s

**Q.** And the Plat (24 h, tissue Blood)?
**A.** 53.7 x10_4/uL

**Q.** And the RBC (24 h, tissue Blood)?
**A.** 660.3 x10_4/ul

**Q.** And the Ret (24 h, tissue Blood)?
**A.** 6.6%

**Q.** What about the WBC (24 h, tissue Blood) of the same substance?
**A.** 82.4 x10_2/uL

**Q.** And the KIDNEY_L (24 h)?
**A.** 0.9 g

**Q.** And the KIDNEY_R (24 h)?
**A.** 0.9 g

**Q.** And the KIDNEY_TOTAL (24 h)?
**A.** 1.8 g

**Q.** And the LIVER (24 h)?
**A.** 9.2 g

**Q.** What about the ALP (24 h) of the same substance?
**A.** 1258 IU/L

**Q.** What about the ALT (24 h) of the same substance?
**A.** 36.7 IU/L

**Q.** And the AST (24 h)?
**A.** 71 IU/L

**Q.** What about the BUN (24 h) of the same substance?
**A.** 18.3 mg/dL

**Q.** And the CRE (24 h)?
**A.** 0.2 mg/dL

**Q.** What about the DBIL (24 h) of the same substance?
**A.** 0.01 mg/dL

**Q.** And the GLC (24 h)?
**A.** 181.3 mg/dL

**Q.** And the IP (24 h)?
**A.** 9.2 mg/dL

**Q.** What about the K (24 h) of the same substance?
**A.** 4.7 meq/L

**Q.** What about the LDH (24 h) of the same substance?
**A.** 64 IU/L

**Q.** What about the PL (24 h) of the same substance?
**A.** 176 mg/dL

**Q.** What about the RALB (24 h) of the same substance?
**A.** 2.7 g/dL

**Q.** And the TBIL (24 h)?
**A.** 0.07 mg/dL

**Q.** What about the TC (24 h) of the same substance?
**A.** 107 mg/dL

**Q.** And the TG (24 h)?
**A.** 47.7 mg/dL
